Values joined by “and” are separate entries in the source; they are usually repeats but may differ in a detail not shown here. Identical values can stand only once. Like-named read-outs stand apart in the source and are kept apart here.

The subject of assay [1] is Enterococcus faecalis (clinical isolate). Conditions: Gram positive clinical isolate.
The test system of assay [2] is Pseudomonas aeruginosa ATCC 27853. The conditions noted are these: Gram negative reference strain.
Another assay has as its system S. epidermidis MRSE. Conditions: Gram positive clinical isolate.
The test system of another assay is E. coli U3075921. Put plainly: MIC, broth microdilution. The format is cell-based, Escherichia coli. Conditions: clinical isolate, Table 7. On the procedure: Minimal Inhibition Concentration (MIC) measurements: The Minimal Inhibitory Concentration (MIC) was generally determined by the Broth Microdilution method (based on the protocol described in Clinical and Laboratory Standard Institute (CLSI) NCCLS (2003) M7-A6), as follows:
A stock solution of each of the tested compounds was prepared by diluting the compound to a 2,560 μg/ml concentration with an appropriate solvent. The stock solution was then serially 2-fold diluted in 96-well microdilution trays using Cation-Adjusted Mueller-Hinton Broth (CAMHB) until reaching the desired range of concentrations, whereas each well contained double the final working concentration. Each row further had one growth control well (medium+inoculum only), and one sterility control well (medium+tested compound). Plates were stored at −70° C. until used.
The tested microorganisms were used as fresh overnight cultures on blood agar (for gram-positive organisms) or MacConkey agar (for gram-negatives). A standardized inoculum suspension was prepared by the direct colony suspension method, using sterile saline (equivalent to a 0.5 McFarland standard).
Thus, 50 μl of the inoculum suspension were added to each tested well (except for the sterility control well), and […] was performed during 18-24 hours (depending on the tested microorganism or compound) at 35° C.

For assay [3], the system named is Moraxella catarrhalis ATCC 25238 (Branhamella). Conditions: Gram negative reference strain.
Another assay deals with E. Coli-ESBL negative. The conditions noted are these: Gram negative clinical isolate.
Assay [4] relates to Klebsiella pneumoniae ATCC 13883. Conditions: Gram negative reference strain.
For assay [5], the system named is Proteus mirabilis ATCC 7002. The conditions noted are these: Gram negative reference strain.
The next assay has as its target T1, CXCR4 (Homo sapiens, UniProt P61073).
T1 construct: incubated at 4° C. with anti-CXCR4 mAb, 12G5, conjugated to phycoerithrine (PE); endogenous in cells; host or cells: MT2 cells
In words: Competition with 12G5 mAb binding to CXCR4 on MT2 cells (flow cytometry). The procedure, abridged:
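MT2 cells (0.5×10^6) were incubated for 30 min at 4 °C with PE-conjugated 12G5 anti-CXCR4 mAb, alone or with varying concentrations of pAACs or arginine peptides, in ice-cold PBS/0.1% azide. Cells were then fixed in 1% paraformaldehyde and analysed by flow cytometry (10,000 events), with an isotype control defining non-specific fluorescence.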
A general note: A flow cytometer gives signals particle by particle.

Another assay concerns Enterobacter aerogenes. Conditions: Gram negative clinical isolate.
The next assay relates to E. coli U23773^r. The conditions noted are these: Gram negative clinical isolate.
The test system of another assay is S. aureus MSSA. The conditions noted are these: Gram positive clinical isolate.
For assay [6], the system named is A. baumannii-amikacin^r, meropenem^r. Conditions: Gram negative clinical isolate.
Assay [7] relates to HIV-1 AZT resistant virus. Type of assay: cell-based. Conditions: Table 4; read-out: EC50 AZT^Res. On the procedure: (§1) Inhibition of HIV-1 cell replication was tested using the cMAGI assay, which is based on the ability of HIV-1 TAT to transactivate the expression of an integrated β-galactosidase reporter gene driven by the HIV-LTR (B. Chackeria et al., J. Virol., (1997) 71, 3932; Collins et al., Nat. Med. (2000) 6, 475). The β-galactosidase reporter is modified to remain localized in the nucleus where it can be detected with the X-gal (5-bromo-4-chloro-3indoyl-β-D-galactopyranoside) substrate as an intense nuclear stain within a few days of infection.
(§2) HIV-1 isolates were propagated by subculture in MT2 cells (Litovchick et al. (2001) supra). Aliquots of cell-free culture supernatants were used as viral inoculum. PAACs were dissolved in the RPMI 1640 medium. Cytotoxicity determinations were carried out in MT2 cells by trypan blue exclusion assay. Viral inhibition was determined by incubating MT2 or cMAGI HIV-1 reporter cells with 0.2-0.5 multiplicity of infection of HIV-1 wild type or resistant virus for 4 days at 37° C. in the presence or absence of various concentrations of pAACs. HIV-1 infection of cMAGI cells was determined by counting the number of HIV-1-infected cells (stained blue). The cytopathic effects of the viral infection of MT2 cells were also analyzed by microscopic assessment of syncytium formation.

The test system of assay [8] is HIV-1 NeoR6 resistant virus. Type of assay: cell-based. The conditions noted are these: read-out: EC50 NeoR6^Res; Table 4. On the procedure: as §1, §2
Assay [9] concerns HIV-1 clinical isolate Clade A. The format is cell-based. On the procedure:
as §1, §2

In the next assay the test system is HIV-1 Ba-L. The format is cell-based. The conditions noted are these: Table 4. Here is the method: as §1, §2
The subject of assay [10] is HIV-1 clinical isolate Clade C. The format is cell-based. On the procedure: as §1, §2
In assay [11] the test system is HIV-1 Protease resistant virus. Type of assay: cell-based. Conditions: Table 4; read-out: EC50 Protease^Res. On the procedure:
as §1, §2

The test system of a further assay is HIV-1 IIIB. In words: microbe, parasite or virus in culture. The format is cell-based. The procedure, abridged: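 cMAGI β-galactosidase reporter cells or MT2 cells infected at 0.2-0.5 MOI with wild-type or resistant HIV-1 and incubated 4 days at 37 °C with varying compound concentrations. Infection scored by counting X-gal-stained blue cMAGI cells; MT2 syncytium formation assessed microscopically, cytotoxicity by trypan blue exclusion.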

Assay [12] relates to Acinetobacter baumannii ATCC 19606. Conditions: Gram negative reference strain.
In assay [13] the test system is K. pneumoniae-ESBL positive. Conditions: Gram negative clinical isolate.
The test system of assay [14] is Escherichia coli ATCC 25922. Conditions: Gram negative reference strain.

T1 sequence (P61073 whole entry): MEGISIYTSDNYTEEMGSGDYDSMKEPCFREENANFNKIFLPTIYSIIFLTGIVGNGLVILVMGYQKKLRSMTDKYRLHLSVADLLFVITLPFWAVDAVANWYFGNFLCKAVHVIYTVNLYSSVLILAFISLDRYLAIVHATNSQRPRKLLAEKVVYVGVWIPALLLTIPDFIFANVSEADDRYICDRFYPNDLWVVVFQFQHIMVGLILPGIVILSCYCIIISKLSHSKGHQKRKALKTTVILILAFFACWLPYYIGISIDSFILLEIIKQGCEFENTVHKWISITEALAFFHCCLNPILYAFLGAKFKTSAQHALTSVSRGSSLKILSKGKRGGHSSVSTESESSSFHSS

On to `CC(=O)N[C@H](CCCNC(=N)N)C(=O)N[C@H](CCCNC(=N)N)C(=O)N[C@H](CCCNC(=N)N)C(=O)N[C@H](CCCNC(=N)N)C(=O)N[C@H](CCCNC(=N)N)C(=O)N[C@H](CCCNC(=N)N)C(=O)N[C@H](CCCNC(=N)N)C(=O)N[C@H](CCCNC(=N)N)C(=O)N[C@H](CCCNC(=N)N)C(=O)O` [Compound 12, D-Arg-9-mer-NHAc], for which the “Minimum Inhibitory Concentration” value in [1] is 128.0 mg/liter and 63.82 μM; in assay [2], > 256.0 mg/liter and 127.64 μM; in the assay with S. epidermidis MRSE, 96.0 mg/liter and 47.86 μM; with E. coli U3075921 it was 96.0 mg/L; in assay [3], 16.0 mg/liter and 7.98 μM; in the assay on E. Coli-ESBL negative it was 128.0 mg/liter and 63.82 μM. For the same molecule, the “Minimum Inhibitory Concentration” value in [4] is 96.0 mg/liter and 47.86 μM; in assay [5], > 256.0 mg/liter and 127.64 μM; in the assay with Enterobacter aerogenes, 128.0 mg/liter and 63.82 μM; in the assay with E. coli U23773^r it was 64.0 mg/L; in the assay with S. aureus MSSA, > 128.0 mg/liter and 63.82 μM; in assay [6], > 256.0 mg/liter and 127.64 μM. Also, the “Minimum Inhibitory Concentration” value in assay [12] was > 256.0 mg/liter and 127.64 μM; in assay [13], 48.0 mg/liter and 23.93 μM; in [14] it was 128.0 mg/liter and 63.82 μM. In addition, on CXCR4 (2 μM, read-out: % Inhibition of 12G5 mAb binding to CXCR4), the inhibition (as a rule, the percentage by which the read-out fell short of the control) at 2 µM is 81.3%. The inhibition at 10 µM at CXCR4 (10 μM, read-out: % Inhibition of 12G5 mAb binding to CXCR4) turned out to be 99.6%. Also, the EC50 – broadly, the concentration at which the effect is half-maximal – in assay [7] is 9.7 ± 5.9 µM; in [8], 2 ± 1.2 µM; in assay [9] (clinical isolate Clade A), 2.2 ± 0.3 µM; in the assay with HIV-1 Ba-L, greater than 50 µM; in assay [10] (clinical isolate Clade C) it was 1.6 ± 0.4 µM; in [11], 1.4 ± 0.6 µM. For the same molecule, the EC50 in the assay with HIV-1 IIIB (Table 4, read-out: EC50 IIIB) turned out to be 1.5 ± 0.6 µM.

On to `NCC1OC(OC2C(CO)OC(OC3C(O)C(N)CC(N)C3OC3OC(CN)C(O)C(O)C3N)C2O)C(N)C(O)C1O` (stereo not drawn) [Neomycin], for which the figures for the “Minimum Inhibitory Concentration” value (in the assay on E. coli U23773^r; in [6]) were 140.81 µM and 105.61 µM, respectively. Moreover, the EC50 with HIV-1 IIIB (Human immunodeficiency virus 1, MT2, Table 3, against HIV-1 IIIB virus, read-out: EC50) is greater than 200 µM.

Take D-Arg-9-mer-neomycin [Compound 14]: the “Minimum Inhibitory Concentration” value was 64.0 mg/liter and 22.05 μM in [1]; > 256.0 mg/liter and 88.22 μM in assay [2]; 8.0 mg/liter and 2.76 μM in the assay on S. epidermidis MRSE; 48.0 mg/liter and 16.54 μM in the assay with E. coli U3075921; 8.0 mg/liter and 2.76 μM in [3]; 16.0 mg/liter and 5.51 μM with E. Coli-ESBL negative. The “Minimum Inhibitory Concentration” value in assay [4] was 12.0 mg/liter and 4.14 μM; in [5], 64.0 mg/liter and 22.05 μM; with Enterobacter aerogenes, 32.0 mg/liter and 11.02 μM; in the assay with E. coli U23773^r, 32.0 mg/L; in the assay with S. aureus MSSA, 16.0 mg/liter and 5.51 μM; in [6] it was > 256.0 mg/liter and 88.22 μM. For the same molecule, the “Minimum Inhibitory Concentration” value in assay [12] is > 256.0 mg/liter and 88.22 μM; in assay [13], 32.0 mg/liter and 11.02 μM; in [14], 32.0 mg/liter and 11.02 μM. The “% Inhibition of 12G5 mAb binding to CXCR4” value was 95.3% at CXCR4 (2 μM) and 100% at CXCR4 (10 μM). The EC50 in assay [7] was 6.6 ± 5.9 µM; in assay [8] it was 2 ± 0.5 µM; in assay [9] (Table 4, read-out: EC50 Clade A), 2.1 ± 0.4 µM; in the assay on HIV-1 Ba-L it was greater than 50 µM; in assay [10] (Table 4, read-out: EC50 Clade C) it was 1.2 ± 0.5 µM; in assay [11] it was 1.5 ± 0.4 µM. The EC50 in the assay with HIV-1 IIIB (Table 4, read-out: EC50 IIIB) stood at 1.3 ± 0.4 µM.

These data come from US20060166867A1, “Novel conjugates of polysaccharides and uses thereof” (priority 2003, published 2006).
